Test [1] has as its target T1, yeast glutathione reductase (yGR) (Saccharomyces cerevisiae, UniProt P41921).
T1 sequence (P41921 1-483): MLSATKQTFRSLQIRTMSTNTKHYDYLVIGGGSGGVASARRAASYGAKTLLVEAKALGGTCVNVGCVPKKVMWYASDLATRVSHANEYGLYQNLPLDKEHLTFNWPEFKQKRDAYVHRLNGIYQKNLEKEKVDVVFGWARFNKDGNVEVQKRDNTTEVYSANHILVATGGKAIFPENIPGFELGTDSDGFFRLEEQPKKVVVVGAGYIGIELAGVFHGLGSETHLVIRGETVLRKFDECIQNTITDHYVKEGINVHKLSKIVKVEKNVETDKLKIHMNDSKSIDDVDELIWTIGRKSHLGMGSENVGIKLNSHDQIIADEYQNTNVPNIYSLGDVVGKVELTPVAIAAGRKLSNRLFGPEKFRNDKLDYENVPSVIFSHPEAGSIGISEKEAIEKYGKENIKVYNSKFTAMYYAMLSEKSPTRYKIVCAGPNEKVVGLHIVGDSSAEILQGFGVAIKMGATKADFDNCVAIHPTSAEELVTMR
As to the kind of experiment: LC-MS/MS of covalent adduct. To be noted: read-out: Ki. Format: biochemical.

For test [2], the target named is T2, human glutathione reductase (hGR) (Homo sapiens, UniProt P00390).
T2 sequence (P00390 44-522): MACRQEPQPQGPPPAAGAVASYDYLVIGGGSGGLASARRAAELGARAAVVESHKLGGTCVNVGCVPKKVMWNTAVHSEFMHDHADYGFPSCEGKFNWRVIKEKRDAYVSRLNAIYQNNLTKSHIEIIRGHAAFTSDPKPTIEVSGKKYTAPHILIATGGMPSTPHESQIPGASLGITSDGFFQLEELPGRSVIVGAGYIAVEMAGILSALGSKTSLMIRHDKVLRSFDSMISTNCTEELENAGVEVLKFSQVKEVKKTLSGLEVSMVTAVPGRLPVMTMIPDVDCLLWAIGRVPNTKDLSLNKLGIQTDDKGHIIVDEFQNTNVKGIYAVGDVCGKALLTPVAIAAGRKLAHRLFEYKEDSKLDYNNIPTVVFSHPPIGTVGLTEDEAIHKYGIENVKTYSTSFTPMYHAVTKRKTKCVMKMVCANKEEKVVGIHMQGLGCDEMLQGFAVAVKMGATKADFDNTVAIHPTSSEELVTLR
Nature of the test: GR activity assay. Format: biochemical.

Regarding `S=C=NCc1ccccc1` [BITC, Benzyl isothiocyanate], in test [1], the KI (inactivation) worked out at 260 µM. Besides, the “GR activity assay (NADPH consumption at 340 nm)” value in test [2] was “BITC exerted comparable inhibitory effect against both of yeast and human GRs”.

For the molecule `S=C=NCCc1ccccc1` [PEITC, Phenethyl isothiocyanate], in test [2], the “GR activity assay (NADPH consumption at 340 nm)” value was “both of BITC and PEITC inhibited yeast or human GR in a concentration-dependent manner”.

Values taken from article PMC7534374 (Journal of Enzyme Inhibition and Medicinal Chemistry, 2020).
